# Test: Binding energy by using the equation deltaG obsd = -RT ln KD
# Format: ADME
row,Molecule,Binding energy [kJ/mol]
1,C[C@H]1[C@H]2C(=O)c3ccc(O)cc3[C@]1(C)CCN2CC1CC1 [KETAZOCINE],47.7
2,CNCCCN1c2ccccc2CCc2ccccc21 [DESIPRAMINE],51
3,c1ccc2c(CC3=NCCN3)cccc2c1 [NAPHAZOLINE],49.8
4,O=c1[nH]c(=O)c2c[nH]nc2[nH]1 [OXYPURINOL],52.7
5,C[N+](C)(C)C [TETRAMETHYLAMMONIUM ION],15.1
6,C=C(C)[C@@H]1[C@H]2OC(=O)[C@@H]1[C@]1(O)C[C@H]3O[C@]34C(=O)O[C@H]2[C@]14C [PICROTOXININ],36.4
7,CN1C[C@H](CNC(=O)OCc2ccccc2)C[C@@H]2c3cccc4c3c(cn4C)C[C@H]21 [METERGOLINE],54.4
8,O=C(O)CC(O)(CC(=O)O)C(=O)O [CITRIC ACID],21
9,O=C1CC(=O)N([C@@H]2O[C@H](COP(=O)(O)O)[C@@H](O)[C@H]2O)C(=O)N1,63.2
10,CNCCCC1c2ccccc2C=Cc2ccccc21 [PROTRIPTYLINE],45.2
11,Nc1ccn([C@@H]2O[C@H](COP(=O)(O)O)[C@@H](O)[C@H]2O)c(=O)n1,24.7
12,CN(C)CCC(c1ccc(Cl)cc1)c1ccccn1 (stereo not given) [CHLORPHENIRAMINE],53.6
13,Nc1nc(N)c2nc(Cc3ccccc3)cnc2n1,51.5
14,CN1C(=O)CN=C(c2ccccc2)c2cc(Cl)ccc21 [DIAZEPAM],48.1
15,O=C(O)COP(=O)(O)O [PHOSPHOGLYCOLIC ACID],36.4
16,CN1CCN(C2=Nc3cc(Cl)ccc3Nc3ccccc32)CC1 [CLOZAPINE],51.5
17,CCC(=O)C1(c2cccc(O)c2)CCN(C)CC1 [KETOBEMIDONE],45.2
18,NCCc1c[nH]c2ccc(O)cc12 [SEROTONIN],37.2
19,CN(C)CCCN1c2ccccc2Sc2ccc(Cl)cc21 [CHLORPROMAZINE],51.5
20,O=P(O)(O)OC[C@H]1OC(O)(COP(=O)(O)O)[C@@H](O)[C@@H]1O (stereo not given in full) [FOSFRUCTOSE],42.7
21,O=c1oc2ccccc2c(O)c1Cc1c(O)c2ccccc2oc1=O [DICUMAROL],36.8
22,Oc1ncnc2[nH]ncc12 [ALLOPURINOL],52.3

row,Molecule,Binding energy [kJ/mol]
1,C=CCc1ccccc1OCC(O)CNC(C)C (stereo not given) [ALPRENOLOL],54
2,O=C(O)c1ccc(C(=O)O)c(C(=O)O)c1,21.8
3,Cl[C@H]1[C@H](Cl)[C@@H](Cl)[C@@H](Cl)[C@H](Cl)[C@H]1Cl [LINDANE],25.5
4,NC(=O)C(N)Cc1ccccc1 (stereo not given),25.5
5,CN1CCC(=C2c3ccccc3Oc3ccc(Cl)cc32)CC1 [CLOPIPAZAN],53.6
6,Cc1nc(N)nc(N)c1-c1ccc(Cl)c(Cl)c1 [METOPRINE],51.5
7,CCN(CC)C(=O)[C@@H]1C=C2c3cccc4[nH]cc(c34)C[C@H]2N(C)C1 [LYSERGIDE],53.1
8,O=P(O)(O)/C=C/CCO,17.2
9,CCC1(c2ccccc2)C(=O)NC(=O)N(C)C1=O (stereo not given) [MEPHOBARBITAL],30.5
10,C[C@]12CC[C@@H]3c4ccc(O)cc4CC[C@H]3[C@@H]1CC[C@@H]2O [ESTRADIOL],55.2
11,CN1CCN2c3ccccc3Cc3ccccc3C2C1 (stereo not given) [MIANSERIN],52.3
12,CN1CCC(=C2c3ccccc3C=Cc3ccccc32)CC1 [CYPROHEPTADINE],53.6
13,COc1ccc2cc([C@H](C)C(=O)O)ccc2c1 [NAPROXEN],35.6
14,Cc1c(O)oc2ccccc2c1=O,29
15,FLUPENTIXOL,48.1
16,O=C(CCCN1CCC2(CC1)C(=O)NCN2c1ccccc1)c1ccc(F)cc1 [SPIPERONE],58.6
17,NCCc1ccccc1 [PHENETHYLAMINE],23
18,O=C(O)C(Cc1ccccc1)OP(=O)(O)O (stereo not given),38.9
19,C[C@@H]1C[C@H]2[C@@H]3CCC4=CC(=O)C=C[C@]4(C)[C@@]3(F)[C@@H](O)C[C@]2(C)[C@@]1(O)C(=O)CO [DEXAMETHASONE],45.6
20,CC(=O)O[C@]1(C(C)=O)CC[C@H]2[C@@H]3C[C@H](C)C4=CC(=O)CC[C@]4(C)[C@H]3CC[C@@]21C [MEDROXYPROGESTERONE ACETATE],42.7
21,O=C(NC1CCN(CCc2c[nH]c3ccccc23)CC1)c1ccccc1 [INDORAMIN],48.1
22,C(=C\c1ccccc1)/CN1CCN(C(c2ccccc2)c2ccccc2)CC1 [CINNARIZINE],35.1

row,Molecule,Binding energy [kJ/mol]
1,C=C(C)[C@@H]1[C@H]2OC(=O)[C@@H]1[C@]1(O)[C@H]3O[C@H]3[C@]3(CO3)[C@]1(C)[C@@H]2O,36.8
2,ClC1=C(Cl)[C@]2(Cl)[C@@H]3[C@@H]4C[C@@H]([C@H]5O[C@@H]45)[C@@H]3[C@@]1(Cl)C2(Cl)Cl [DIELDRIN],25.5
3,COC(=O)C1=CCCN(C)C1 [ARECOLINE],30.1
4,CN1CCC(=C2c3ccccc3CCc3sccc32)CC1 [PIZOTYLINE],54.4
5,CCCCC[C@H](O)/C=C/[C@H]1[C@H](O)CC(=O)[C@@H]1C/C=C\CCCC(=O)O [DINOPROSTONE],48.1
6,OC[C@H]1OC(O)[C@H](O)[C@@H](O)[C@@H]1O (stereo not given in full) [DEXTROSE],36.4
7,COc1cc2nc(N3CCN(C(=O)c4ccco4)CC3)nc(N)c2cc1OC [PRAZOSIN],54.8
8,CN1[C@@H]2C[C@@H](OC(=O)[C@H](CO)c3ccccc3)C[C@H]1[C@@H]1O[C@@H]12 [SCOPOLAMINE],54
9,CC(=O)O [ACETIC ACID],13
10,CCC1(CC=C2CCCCC2)C(=O)NC(=O)NC1=O,35.1
11,CN1CCc2cccc3c2[C@H]1Cc1ccc(O)c(O)c1-3 [APOMORPHINE],49.8
12,O=c1[nH]c2ccccc2n1CCCN1CCC(n2c(=O)[nH]c3cc(Cl)ccc32)CC1 [DOMPERIDONE],57.7
13,O=P(O)(O)C#CCCO,14.2
14,CN(C)CCOC(c1ccc(Cl)cc1)c1ccccn1 (stereo not given) [CARBINOXAMINE],51.5
15,CCCC(CCC)C(=O)O [VALPROIC ACID],25.5
16,O=C1CCC(c2ccccc2)(C2CCN(Cc3ccccc3)CC2)C(=O)N1 (stereo not given) [BENZETIMIDE],50.2
17,CC(CN1CCOCC1)C(C(=O)N1CCCC1)(c1ccccc1)c1ccccc1 (stereo not drawn) [RACEMORAMIDE],51.5
18,O=C(O)CCc1ccccc1 [PHENYL PROPIONIC ACID],23
19,CC(=O)OCC[N+](C)(C)C [ACETYLCHOLINE],46.4
20,Cc1c(Cc2ccc(Cl)cc2)cnc2nc(N)nc(N)c12,55.2
21,Cc1ncc(CO)c(CN[C@@H](C)C(=O)O)c1O,38.5

# — ChEMBL document CHEMBL1122538, “Functional group contributions to drug-receptor interactions” (J Med Chem, 1984)
